Experimental data: BigSolDB 2.1

CN(Cc1ccccc1)CN1C(=O)C(=NNC(=O)c2ccccc2OCc2ccccc2)c2ccccc21
Conditions | solubility (mole fraction)
in PEG-400, 298.15 K | 0.00711
in PEG-400, 303.15 K | 0.00781
in PEG-400, 308.15 K | 0.00887
in PEG-400, 313.15 K | 0.00992
in PEG-400, 318.15 K | 0.0114

solubility (mole fraction)
Conditions | in ethanol | in ethylene glycol | in isopropanol | in n-butanol | in propylene glycol | in sec-butanol | in transcutol | in water
298.15 K | 0.000474 | 0.000304 | 0.000414 | 0.000759 | 0.000362 | 0.000808 | 0.00394 | 1.11e-06
303.15 K | 0.000583 | 0.000416 | 0.00053 | 0.00091 | 0.000488 | 0.000968 | 0.00453 | 1.5e-06
308.15 K | 0.000715 | 0.000536 | 0.000658 | 0.00106 | 0.000624 | 0.00113 | 0.00533 | 1.93e-06
313.15 K | 0.000832 | 0.000671 | 0.000802 | 0.00122 | 0.000782 | 0.00129 | 0.00618 | 2.46e-06
318.15 K | 0.000969 | 0.000809 | 0.000941 | 0.00138 | 0.000952 | 0.00145 | 0.00714 | 3e-06
